Common to all, as to format: cell-based
Assay [1] concerns MCF-7 breast cancer cells. Kind of assay: MCF-7 proliferation / cell viability assay. The conditions noted are these: Homo sapiens, MCF7; MCF-7 proliferation with 0.1 nM 17-beta estradiol; read-out: IC50 (anti-proliferation). As for the experimental part: The Anti-Proliferative Activities of the Exemplary Compounds were Assessed by a Cell Viability Assay in MCF-7 Breast Cancer Cells
MCF-7 cells were plated in six-well plates at a density of 50,000 each well in 5% FBS DMEM medium. The cells were then treated with exemplary compounds or fulvestrant separately at 6 different doses ranging from 10^−10 M to 10^−5 M for 5 days, while equal volumes of DMSO were used as vehicle controls. Viable cell numbers were counted with a Z Series Coulter Counter instrument (Beckman-Coulter) following manufacturer's instructions. The ratio of drug treated viable cell numbers to vehicle treated viable cell numbers was defined as survival ratio where the control has the survival ratio of 100%.

The next assay concerns the target T1, ER (Homo sapiens, UniProt P03372).
T1 construct: endogenous in cells; host or cells: T47d-kb-Luc (T47D stably transfected with a luciferase reporter gene only)
T1 sequence (P03372 1-595): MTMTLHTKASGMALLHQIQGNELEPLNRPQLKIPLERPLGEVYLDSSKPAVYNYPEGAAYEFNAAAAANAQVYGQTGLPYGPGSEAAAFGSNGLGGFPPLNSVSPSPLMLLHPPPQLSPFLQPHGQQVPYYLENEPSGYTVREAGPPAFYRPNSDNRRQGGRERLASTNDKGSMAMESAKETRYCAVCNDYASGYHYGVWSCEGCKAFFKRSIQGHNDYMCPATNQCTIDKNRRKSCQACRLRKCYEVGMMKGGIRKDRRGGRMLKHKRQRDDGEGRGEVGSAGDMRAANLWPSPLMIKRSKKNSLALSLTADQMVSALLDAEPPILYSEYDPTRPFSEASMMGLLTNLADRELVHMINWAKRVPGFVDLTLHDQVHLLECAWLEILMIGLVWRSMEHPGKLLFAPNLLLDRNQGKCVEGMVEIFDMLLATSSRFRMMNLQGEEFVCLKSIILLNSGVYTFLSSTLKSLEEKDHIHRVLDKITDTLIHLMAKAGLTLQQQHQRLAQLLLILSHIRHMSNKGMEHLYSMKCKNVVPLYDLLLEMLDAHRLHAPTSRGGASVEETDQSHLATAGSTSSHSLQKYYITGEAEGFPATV
Kind of assay: ER antagonism (T47D ERE luciferase), T47d-kb-Luc cells. To be noted: read-out: IC50 (ER antagonistm). As for the experimental part:
The Antiestrogenic Activity of the Exemplary Compounds was Assessed in T47d-kb-Luc Stably Transfected Human Breast Cancer Cell
Antagonist activities were measured by the compound's ability to inhibit the activity of estradiol, the natural estrogen. Data were then normalized relative to the activity of the estradiol control and determinations were performed for five concentrations of the samples in quadruplicate in at least three separate experiments.

In the next assay the target is T2, ERα (Homo sapiens, UniProt P03372).
T2 construct: endogenous in cells; host or cells: MCF-7
T2 sequence (P03372 1-595): T1 sequence (P03372 1-595)
Kind of assay: ER degradation in MCF-7 cells (Western blot). The conditions noted are these: for DC50: ER degradation, 24 hours; for Dmax: MCF7, Maximal ER degradation, read-out: Dmax. On the procedure: Degradation of ER in MCF-7 Breast Cancer Cells by Exemplary Compounds of the Present Disclosure
MCF-7 cells were plated in 24-well plates at a density of 10^5 cells/well. Media containing various drug concentrations were added on the day following plating (day 0) and allowed to incubate for 24 hours for Western blot. Media with the tested compound was changed every other day. Cells were lysed, snapped frozen in liquid nitrogen, and stored at −80° C. until assay for ERα. Media were removed and dishes were washed with 1× DPBS. Lysates were made by adding 150 μL of complete lysis solution and scraping cells into a 1.5 mL microcentrifuge tube. Lysates were placed on a rotisserie at 4° C. for 30 min and then spun at 4° C. at 12000 rcf for 10 min. Supernatants were assayed for protein content, snap-frozen, and stored a −80° C. if not run immediately. Then 50 μg of protein was subjected to Western blot protocol. Membranes were blocked and then incubated with 1:200 dilution of ERα antibody at 4° C. overnight followed by 1:10000 dilution of secondary antibody for 1 h at room temperature. They were then imaged on a LICOR infrared scanner.
FIGS. 1 to 10 show the ER degradation efficacy of compounds 3, 5, 9, 11, 12, 16, 18, 19, 20, 21, 23, 24, 25, 26, 27, 28, 29, 30, 31, 32, 33, 34, 37, 38, and 40 in MCF-7 cells at various concentrations. Degradation of ER was expressed as an DC50 value and was determined for exemplary compounds in Table 1 by calculation of the concentration of compound that was required to give a 50% reduction of ER expression level. Maximal degradation of ER was expressed as a Dmax value by measuring the highest percentage of ER reduction achieved by exemplary compound in the treatment concentration range.
Background: Immunoblotting shows a protein as a band on a membrane.

Molecules are shown by their SMILES.

One may read the DC50 as the midpoint of the concentration-degradation curve. Low values mean a more potent degrader, high ones a less potent degrader. One may read the Dmax as the greatest extent of degradation seen. On to `CC/C(=C(/c1ccc(OCCN2CCN(CC3CCN(c4ccc5c(c4)CN(C4CCC(=O)NC4=O)C5=O)CC3)CC2)cc1)c1ccc(B(O)O)cc1)c1ccccc1` (stereo not drawn) [Compound 21, (Z)-(4-(1-(4-(2-(4-((1-(2-(2,6-dioxopiperidin-3-yl)-1-oxoisoindolin-5-yl)piperidin-4-yl)methyl)piperazin-1-yl)ethoxy)phenyl)-2-phenylbut-1-en-1-yl)phenyl)boronic acid], for which the IC50 in assay [1] was less than 0.01 µM. Further, the IC50 at ER was less than 0.01 µM. For the same molecule, on ERα, the DC50 was less than 0.01 µM and the Dmax was greater than 90%.

With `CC/C(=C(\c1ccc(OCCN2CCN(CC3CCN(c4ccc5c(c4)CN(C4CCC(=O)NC4=O)C5=O)CC3)CC2)cc1)c1ccc(B(O)O)cc1)c1ccccc1` (stereo not drawn) [Compound 22, (E)-(4-(1-(4-(2-(4-((1-(2-(2,6-dioxopiperidin-3-yl)-1-oxoisoindolin-5-yl)piperidin-4-yl)methyl)piperazin-1-yl)ethoxy)phenyl)-2-phenylbut-1-en-1-yl)phenyl)boronic acid], the IC50 in assay [1] is less than 0.01 µM. On ER, the IC50 was less than 0.01 µM. Besides, on ERα, the DC50 was less than 0.01 µM and the Dmax is greater than 90%.

Consider `CC/C(=C(/c1ccc(OCCN2CCN(CCN3CCN(c4ccc5c(c4)C(=O)N(C4CCC(=O)NC4=O)C5=O)CC3)CC2)cc1)c1ccc(B(O)O)cc1)c1ccccc1` (stereo not drawn) [Compound 23, (Z)-(4-(1-(4-(2-(4-(2-(4-(2-(2,6-dioxopiperidin-3-yl)-1,3-dioxoisoindolin-5-yl)piperazin-1-yl)ethyl)piperazin-1-yl)ethoxy)phenyl)-2-phenylbut-1-en-1-yl)phenyl)boronic acid], for which the IC50 in assay [1] lay in the range of 0.01 to 0.05 µM. Moreover, on ER, the IC50 was 0.01 to 0.05 µM. At ERα, the DC50 is less than 0.01 µM and the Dmax was greater than 90%.

As to `CC/C(=C(\c1ccc(OCCN2CCN(CCN3CCN(c4ccc5c(c4)C(=O)N(C4CCC(=O)NC4=O)C5=O)CC3)CC2)cc1)c1ccc(B(O)O)cc1)c1ccccc1` (stereo not drawn) [Compound 24], the IC50 in assay [1] was in the range of 0.01 to 0.05 µM. The IC50 at ER lay in the range of 0.01 to 0.05 µM. On ERα, the DC50 is less than 0.01 µM and the greatest degradation seen (Dmax) was greater than 90%.

Regarding `CC/C(=C(\c1ccc(OCCN2CCN(CCC3CCN(c4ccc5c(c4)C(=O)N(C4CCC(=O)NC4=O)C5=O)CC3)CC2)cc1)c1ccc(B(O)O)cc1)c1ccccc1` (stereo not drawn) [Compound 26, (E)-(4-(1-(4-(2-(4-(2-(1-(2-(2,6-dioxopiperidin-3-yl)-1,3-dioxoisoindolin-5-yl)piperidin-4-yl)ethyl)piperazin-1-yl)ethoxy)phenyl)-2-phenylbut-1-en-1-yl)phenyl)boronic acid], in assay [1], the IC50 is 0.01 to 0.05 µM. For the same molecule, the IC50 at ER lay in the range of 0.01 to 0.05 µM. Besides, on ERα, the DC50 is less than 0.01 µM and the Dmax is greater than 90%.

For the molecule `CC/C(=C(/c1ccc(OCCN2CCC(CCN3CCN(c4ccc5c(c4)C(=O)N(C4CCC(=O)NC4=O)C5=O)CC3)CC2)cc1)c1ccc(B(O)O)cc1)c1ccccc1` (stereo not drawn) [Compound 27, (Z)-(4-(1-(4-(2-(4-(2-(4-(2-(2,6-dioxopiperidin-3-yl)-1,3-dioxoisoindolin-5-yl)piperazin-1-yl)ethyl)piperidin-1-yl)ethoxy)phenyl)-2-phenylbut-1-en-1-yl)phenyl)boronic acid], the figures for the IC50 (in assay [1]; at ER) were 0.01 to 0.05 µM and greater than 0.05 µM, respectively. The DC50 at ERα was less than 0.01 µM. Besides, at ERα, the Dmax was greater than 90%.

As for `CC/C(=C(\c1ccc(OCCN2CCC(CCN3CCN(c4ccc5c(c4)C(=O)N(C4CCC(=O)NC4=O)C5=O)CC3)CC2)cc1)c1ccc(B(O)O)cc1)c1ccccc1` (stereo not drawn) [Compound 28, (E)-(4-(1-(4-(2-(4-(2-(4-(2-(2,6-dioxopiperidin-3-yl)-1,3-dioxoisoindolin-5-yl)piperazin-1-yl)ethyl)piperidin-1-yl)ethoxy)phenyl)-2-phenylbut-1-en-1-yl)phenyl)boronic acid], the IC50 in assay [1] lay in the range of 0.01 to 0.05 µM. At ER, the IC50 is greater than 0.05 µM. At ERα, the DC50 was less than 0.01 µM and the Dmax is greater than 90%.

As for `CC/C(=C(/c1ccc(OCCN2CCC(CCN3CCN(c4ccc5c(c4)CN(C4CCC(=O)NC4=O)C5=O)CC3)CC2)cc1)c1ccc(B(O)O)cc1)c1ccccc1` (stereo not drawn) [Compound 29, (Z)-(4-(1-(4-(2-(4-(2-(4-(2-(2,6-dioxopiperidin-3-yl)-1-oxoisoindolin-5-yl)piperazin-1-yl)ethyl)piperidin-1-yl)ethoxy)phenyl)-2-phenylbut-1-en-1-yl)phenyl)boronic acid], the IC50 (in assay [1]; on ER) was 0.01 to 0.05 µM each time. Moreover, the DC50 at ERα is 0.01 to 0.05 µM. In addition, the Dmax at ERα is greater than 90%.

Regarding `CC/C(=C(\c1ccc(OCCN2CCC(CCN3CCN(c4ccc5c(c4)CN(C4CCC(=O)NC4=O)C5=O)CC3)CC2)cc1)c1ccc(B(O)O)cc1)c1ccccc1` (stereo not drawn) [Compound 30, (E)-(4-(1-(4-(2-(4-(2-(4-(2-(2,6-dioxopiperidin-3-yl)-1-oxoisoindolin-5-yl)piperazin-1-yl)ethyl)piperidin-1-yl)ethoxy)phenyl)-2-phenylbut-1-en-l-yl)phenyl)boronic acid], in assay [1], the IC50 fell in the range of 0.01 to 0.05 µM. In addition, the IC50 on ER is 0.01 to 0.05 µM. At ERα, the DC50 is less than 0.01 µM and the greatest degradation seen (Dmax) is greater than 90%.

For the molecule `CC/C(=C(/c1ccc(OCCN2CCC(N3CCN(c4ccc5c(c4)C(=O)N(C4CCC(=O)NC4=O)C5=O)CC3)CC2)cc1)c1ccc(B(O)O)cc1)c1ccccc1` (stereo not drawn) [Compound 31, (Z)-(4-(1-(4-(2-(4-(4-(2-(2,6-dioxopiperidin-3-yl)-1,3-dioxoisoindolin-5-yl)piperazin-1-yl)piperidin-1-yl)ethoxy)phenyl)-2-phenylbut-1-en-1-yl)phenyl)boronic acid], in assay [1], the IC50 was greater than 0.05 µM. The IC50 at ER is greater than 0.05 µM. In addition, at ERα, the DC50 lay within 0.01 to 0.05 µM and the Dmax is greater than 90%.

Take `CC/C(=C(\c1ccc(OCCN2CCC(N3CCN(c4ccc5c(c4)C(=O)N(C4CCC(=O)NC4=O)C5=O)CC3)CC2)cc1)c1ccc(B(O)O)cc1)c1ccccc1` (stereo not drawn) [Compound 32, (E)-(4-(1-(4-(2-(4-(4-(2-(2,6-dioxopiperidin-3-yl)-1,3-dioxoisoindolin-5-yl)piperazin-1-yl)piperidin-1-yl)ethoxy)phenyl)-2-phenylbut-1-en-1-yl)phenyl)boronic acid]: the IC50 in assay [1] was greater than 0.05 µM. Further, on ER, the IC50 is greater than 0.05 µM. On ERα, the DC50 lay in the range of 0.01 to 0.05 µM and the Dmax was greater than 90%.

Consider `CC/C(=C(/c1ccc(OCCN2CCC(C3CCN(c4ccc5c(c4)C(=O)N(C4CCC(=O)NC4=O)C5=O)CC3)CC2)cc1)c1ccc(B(O)O)cc1)c1ccccc1` (stereo not drawn) [Compound 33, (Z)-(4-(1-(4-(2-(1′-(2-(2,6-dioxopiperidin-3-yl)-1,3-dioxoisoindolin-5-yl)-[4,4′-bipiperidin]-1-yl)ethoxy)phenyl)-2-phenylbut-1-en-1-yl)phenyl)boronic acid], for which the IC50 (in assay [1]; at ER) was 0.01 to 0.05 µM each time. For the same molecule, at ERα, the DC50 was less than 0.01 µM. Further, at ERα, the Dmax was greater than 90%.

(Values after US20220348595A1, “COMPOUNDS AND METHODS FOR THE TARGETED DEGRADATION OF ESTROGEN RECEPTORS” (Endotarget Inc., priority 2021, published 2022).)
